Reference: patent US20120288604A1, “Organic Compounds” (Givaudan S.A., priority 2009, published 2012)

Key:
[1] = Tsuzuki et al, J. of chemical and engineering data (1971), 16(1), 108-11; cited from earlier work
[2] = system: panel of 15 subjects all of whom were sweet sensitive; assay: Sensory ranking to find the sucrose concentration iso-intense to aqueous para-ethoxy benzonitrile (R-index analysis); assay type: in vivo
Description: The test samples contained para-ethoxy benzonitrile in water. The control samples were aqueous solutions of sucrose at 0.5%, 1.0%, 1.5% and 2.0%. The sensory evaluations were conducted as follows. All samples were presented at ambient temperature in 15 ml aliquots at random to a panel of 15 subjects all of whom were sweet sensitive of varying sensitivity. After tasting each sample, panelists rinsed their mouths thoroughly with water at ambient temperature prior to tasting subsequent samples. The tastings were carried out in two replications in one session. Panelists were asked to rank the solutions whilst wearing nose plugs. They were asked to rank from least sweet to most sweet.
(§1) The data were subjected to an R-Index analysis. […] An R-index from 50% to the critical value means the sweetness enhancer sample has an equivalent sweetness to the compared sucrose sample.

[3] = system: panel of 15 subjects all of whom were sweet sensitive; assay: Comparative sensory ranking of sucrose solutions against 7% sucrose + para-ethoxy benzonitrile (R-index analysis); assay type: in vivo
Description: The test samples (“Test”) contained 7% sucrose and 20 ppm of para-ethoxy benzonitrile in water. The test samples were compared with control samples containing 7, 8, 9, and 10% sucrose in water. The sensory evaluations were conducted as follows. All samples were presented at ambient temperature in 15 ml aliquots at random to a panel of 15 subjects all of whom were sweet sensitive of varying sensitivity. After tasting each sample, the mouth was rinsed thoroughly with water at ambient temperature prior to tasting the next sample. The tastings were carried out in two replications in one session. Panelists were asked to rank the solutions whilst wearing nose plugs. They were asked to rank from least sweet to most sweet.
as §1

CCOc1ccc(C#N)cc1 [ethoxy benzonitrile]
taste as described [1]: sweet or sweetish

CCOc1ccc(C#N)cc1 [para-ethoxy benzonitrile]
Significantly different (p < 0.05) ([2]; 10 ppm in water vs. 0.5% sucrose): No
R-index ([2]; 10 ppm in water vs. 0.5% sucrose, critical value 64.61%): 51%
iso sweet sucrose solution ([2]; 10 ppm solution in water): 0.5%
Significantly different (p < 0.05) ([2]; 20 ppm in water vs. 0.5% sucrose): Yes
R-index ([2]; 20 ppm in water vs. 0.5% sucrose, critical value 64.61%): 81%
Significantly different (p < 0.05) ([2]; 20 ppm in water vs. 1.0% sucrose): Yes
R-index ([2]; 20 ppm in water vs. 1.0% sucrose, critical value 35.39%): 30%
iso-sweet sucrose solution, by interpolation ([2]; 20 ppm solution in water): 0.75%
perceived sweetness relative to sucrose ([2]; 20 ppm solution vs. 0.5% sucrose): significantly sweeter
perceived sweetness relative to sucrose ([2]; 20 ppm solution vs. 1% sucrose): significantly less sweet
sweetness enhancement (additive or synergistic) ([3]; 20 ppm in 7% sucrose, Examples 1 and 2 taken together): synergistic effect
iso-sweet sucrose, by interpolation ([3]; Test (7% sucrose + 20 ppm in water)): 8.5%
Significantly different (p < 0.05) ([3]; Test (7% sucrose + 20 ppm in water) vs. 7% sucrose): Yes
R-index ([3]; Test (7% sucrose + 20 ppm in water) vs. 7% sucrose, critical value 64.61%): 95%
Significantly different (p < 0.05) ([3]; Test (7% sucrose + 20 ppm in water) vs. 8% sucrose): Yes
R-index ([3]; Test (7% sucrose + 20 ppm in water) vs. 8% sucrose, critical value 64.61%): 73%
Significantly different (p < 0.05) ([3]; Test (7% sucrose + 20 ppm in water) vs. 9% sucrose): Yes
R-index ([3]; Test (7% sucrose + 20 ppm in water) vs. 9% sucrose, critical value 35.39%): 28%
Significantly different (p < 0.05) ([3]; Test (7% sucrose + 20 ppm in water) vs. 10% sucrose): Yes
R-index ([3]; Test (7% sucrose + 20 ppm in water) vs. 10% sucrose, critical value 35.39%): 10%
iso-sweet sucrose expected were the effect merely additive ([3]; Test (7% sucrose + 20 ppm in water), from the data of Example 1): 7.75%
perceived sweetness relative to sucrose ([3]; Test (7% sucrose + 20 ppm) vs. 7 and 8% sucrose solutions): significantly sweeter
perceived sweetness relative to sucrose ([3]; Test (7% sucrose + 20 ppm) vs. 9% and 10% sucrose): less sweet
